# Where two headings read alike, the source gives them in different places.
# Target: T1, N-terminal His6-tagged Mdm225-117 (Homo sapiens, UniProt Q00987)
# T1 construct: 25-117 fusion protein; made in house; host or cells: E. coli BL21 DE3 pLySS, pET-14B vector
# Experiment: Fluorescence polarization competitive binding assay with fluorescein labeled p53 peptide (Flu-p53)
# Settings: for fold decrease in binding affinity: relative to 18 (3-chloro-phenylalanine at R1)
# Method: The relative affinities of peptides for N-terminal His6-tagged Mdm225-117 were determined using fluorescence polarization based competitive binding assay with fluorescein labeled p53 peptide, Flu-p53. The polarization experiments were performed with a DTX 880 Multimode Detector (Beckman) at 25° C., with excitation and emission wavelengths at 485 nm and 535 nm, respectively. All samples were prepared in 96 well plates in 0.1% pluronic F-68 (Sigma).
# For competition binding experiments, a solution of 250 nM Mdm2 and 15 nM Flu-p53 in buffer (10 mM PBS pH 7.4, 5 mM EDTA, 0.5 mM DTT, 0.1% pluronic F-68) was incubated at 25° C. in a 96 well plate. After 30 minutes, appropriate concentrations of the oxopiperazine (1 nM-100 μM) were added to the Mdm2-Flu-p53 mixture and the resulting mixtures were incubated at 25° C. for 1 hour before measuring the degree of dissociation of Flu-p53 by polarization. The EC50 was fit into equation (2) to calculate the Ki value of the oxopiperazine. Ki=KD1*FSB*((LT/(LST*FSB2−(KD1+LST+RT)*FSB+RT))−1(1−FSB)) (2)
# where: • KD=KD of fluorescent probe Flu-p53 • RT=Total concentration of Mdm2 protein • LST=total concentration of p53 fluorescent peptide • FSB=Fraction of bound […] (at EC50) • LT=total concentration of oxopiperazine (EC50)
# The binding affinity (KD) values reported for each peptide are the averages of 3-5 individual experiments, and were determined by fitting the experimental data to a sigmoidal dose-response nonlinear regression model on GraphPad Prism 5.0 (Roehrl et al., Biochemistry 43:16056 (2004), which is hereby incorporated by reference in its entirety).
# A previously-described fluorescence polarization competition assay with a fluorescein-labeled p53 peptide was utilized to probe the binding affinity of the mimetics (Henchey et al., ChemBiochem 11:2104 (2010); Knight et al., Anal. Biochem. 300:230 (2002), each of which is hereby incorporated by reference in its entirety). […] To examine the effect of the R3 position on the binding properties, a series of compounds was designed in which this position was changed to hydrophobic, anionic, or cationic residues. These studies were performed in the context of the dimers (1-4) as well as oxopiperazine monomers linked to uncyclized dipeptides (see Table 4, supra). […] Importantly, comparisons of dimers 3 (FWLL) and 4 (FWFL) with the monomer-dipeptide sequences 11 and 12 support the hypothesis that cyclization of dipeptides in oxopiperazine rings provides a significant boost to the ability of these helix mimetics to target protein pockets Ramachandran Plots (Ramachandran & Sasisekharan, Adv. Protein Chem. 23:283 (1968), which is hereby incorporated by reference in its entirety) obtained from quantum mechanical calculations further illustrate the flexibility of the uncyclized derivative (FIGS. 9C-D) as compared to the cyclic dimer (FIGS. 9A-B).
# [1] = Table 6, computationally predicted dimers, competitive fluorescence polarization assay, read-out: Kd (μM), binding affinity for Mdm2
# [2] = Table 5, restated by sequence, read-out: Experimental Kd
# [3] = Table 3, oxopiperazine dimers, competitive fluorescence polarization assay, read-out: Kd (μM), binding affinity for Mdm2
compound,measurement,setting,value
"COc1ccc(C[C@@H]2NCCN([C@@H](Cc3c[nH]c4ccccc34)C(=O)N3CCN([C@@H](CC(C)C)C(N)=O)C(=O)[C@@H]3Cc3ccccc3)C2=O)cc1 [Mimetic 17, Y(O—Me)WFL-NH2]","binding to Mdm2, in words",,slightly better than 16
same,Kd,[1],0.32 ± 0.01 µM
"CC(C)C[C@@H](C(N)=O)N1CCN(C(=O)[C@H](Cc2c[nH]c3ccccc23)N2CCN[C@@H](Cc3ccc(O)cc3)C2=O)[C@@H](Cc2ccccc2)C1=O [Mimetic 16, YWFL-NH2]",Kd,[2],0.4 µM
same,Kd,read-out: ligand for Mdm2 (affinity),0.4 µM
"CC(C)C[C@@H](C(=O)O)N1CCN(C(=O)[C@H](Cc2c[nH]c3ccccc23)N2CCN[C@@H](Cc3ccccc3)C2=O)[C@@H](CCCCN)C1=O [Mimetic 2, FWKL-OH]","binding to Mdm2, in words",,appreciably lower affinity
"CC(C)C[C@@H](C(N)=O)N1CCN(C(=O)[C@H](C)N2CCN[C@@H](Cc3ccccc3)C2=O)[C@@H](Cc2ccccc2)C1=O [Mimetic 8, FAFL-NH2]",Kd,[3],63.9 ± 6.8 µM
"CC(C)C[C@@H](C(N)=O)N1CCN(C(=O)[C@H](Cc2c[nH]c3ccccc23)N2CCN[C@@H](CCCCN)C2=O)[C@@H](Cc2ccccc2)C1=O [Mimetic 7, KWFL-NH2]","binding to Mdm2, in words",,poor binder
"NCCCC[C@@H](C(N)=O)N1CCN(C(=O)[C@H](Cc2c[nH]c3ccccc23)N2CCN[C@@H](Cc3ccccc3)C2=O)[C@@H](Cc2ccccc2)C1=O [Mimetic 6, FWFK-NH2]","binding to Mdm2, in words",,rather poor binder
"CC(C)C[C@@H](C(N)=O)N1CCN(C(=O)[C@H](Cc2c[nH]c3ccccc23)N2CCN[C@@H](Cc3cccc4ccccc34)C2=O)[C@@H](Cc2ccccc2)C1=O [Mimetic 15, (Nap)WFL-NH2]",Kd,[2],0.85 µM
same,fold higher affinity than 5,relative to mimetic 5,three-fold higher affinity
"CC(C)C[C@@H](C(N)=O)N1CCN(C(=O)[C@H](Cc2c[nH]c3ccccc23)N2CCN[C@@H](Cc3ccccc3)C2=O)[C@@H](Cc2ccccc2)C1=O [Mimetic 5, FWFL-NH2]",Kd,[3],2.88 ± 0.12 µM
"CC(C)C[C@@H](C(=O)O)N1CCN(C(=O)[C@H](Cc2c[nH]c3ccccc23)N2CCN[C@@H](Cc3ccccc3)C2=O)[C@@H](C)C1=O [Mimetic 1, FWAL-OH]",Kd,[3],65.4 ± 0.28 µM
same,Kd,"oxopiperazine trimers, method not stated, read-out: Kd2",3.1 ± 2.4 µM
same,Kd,"read-out: dissociation constant, Kd",65 µM
"Cc1cccc(C[C@@H]2NCCN([C@@H](Cc3c[nH]c4ccccc34)C(=O)N3CCN([C@@H](CC(C)C)C(N)=O)C(=O)[C@@H]3Cc3ccccc3)C2=O)c1 [Mimetic 19, F(3-Me)WFL-NH2]",Kd,[2],2.6 µM
same,fold decrease in binding affinity,,8 fold
"CC(C)C[C@@H](C(N)=O)N1CCN(C(=O)[C@H](Cc2c[nH]c3ccccc23)N2CCN[C@@H](Cc3ccc(Cl)cc3)C2=O)[C@@H](Cc2ccccc2)C1=O [Mimetic 20, F(4-Cl)WFL-NH2]",Kd,[1],1.29 ± 0.06 µM
same,fold decrease in binding affinity,,4 fold
"CCCC[C@@H](C(N)=O)N1CCN(C(=O)[C@H](Cc2c[nH]c3ccccc23)N2CCN[C@@H](Cc3ccccc3)C2=O)[C@@H](Cc2ccccc2)C1=O [Mimetic 13, FWF(Nle)-NH2]",Kd,[2],2.46 µM
"CC(C)C[C@@H](C(N)=O)N1CCN(C(=O)[C@H](Cc2c[nH]c3ccccc23)N2CCN[C@@H](Cc3cccc(Cl)c3)C2=O)[C@@H](Cc2ccccc2)C1=O [Mimetic 18, F(3-Cl)WFL-NH2]","binding to Mdm2, in words",,slightly better than 16
same,Kd,[2],0.33 µM

# — patent US11180481B2, “Oxopiperazine helix mimetics as inhibitors of the p53-MDM2 interaction” (NEW YORK UNIVERSITY, priority 2014, dated 2021)
